This note sets out measurements from patent publication US10711230B2, “N-acyl proline derivatives as food flavoring compounds” (Givaudan S.A., priority 2012, dated 2020).

The nature of assay [1]: Expert taster evaluation in beef bouillon. The settings on record: 1 ppm in base (Maggi beef bouillon, 1 tablet in 500 ml hot water); base alone: salty, umami, powdery. The method, then: (§1) Samples were evaluated by expert tasters. Tasters were asked to describe the samples focusing on authentic taste, mouthfeel, fullness, salty-ness, salivation, umami, sweetness, juiciness, richness, long lastingness and fattiness.
Base is Maggi beef bouillon 1 tablet in 500 ml of hot water

Assay [2] can be described thus: Expert taster evaluation in a mango juice drink. Conditions: 1 ppm in base (water, 8% sucrose, 0.1% citric acid, 1% clear mango juice, mango flavour 0.05%); base alone: fruity mango. As to the method: as §1
Comparison in a Mango Juice Drink
Base is water, 8% sucrose, 0.1% citric acid, 1% clear mango juice, proprietary mango flavour @ 0.05%

Assay [3] in a line: Expert taster evaluation in lemon beverage. The settings on record: 1 ppm in base (water, 7% sucrose, 0.15% citric acid, lemon flavor), base alone: floral, citral. As to the method: as §1
Basis water, 7% sucrose, 0.15% citric acid, proprietary lemon flavor

Assay [4] in a line: Expert taster evaluation in orange beverage. The settings on record: 1 ppm in base (water, 7% sugar, 0.1% citric acid, orange flavour 0.06%); base alone: orange, fruity, slightly candy. The method, then: as §1
Base is water, 7% sugar, 0.1% citric acid, proprietary orange flavour @ 0.06%.

SMILES strings stand for the structures.

For the compound `CCCCCCCCCCCCCCCC(=O)N1CCCC1C(=O)O` (stereo not shown) [C16:0-pro, N-palmitoyl-Pro], the “taste description in bouillon” value in assay [1] is reported as “more salty, full, darker, more meat-like”. Moreover, the “taste description in mango juice drink” value in assay [2] is recorded as “overripe, orange like, long lasting after taste”.
On to `CCCCC/C=C\C/C=C\CCCCCCCC(=O)N1CCC[C@H]1C(=O)O` [C18:2-pro, N-linoleoyl-Pro], for which the “taste description in lemon beverage” value in assay [3] is given as “very juicy, more citral like, very authentic”. In addition, in assay [4], the “taste description in orange beverage” value is listed as “very juicy, authentic orange”.
